Experimental data taken from article PMC7758436 (Frontiers in Veterinary Science, 2020).
pIC50: −log10 of the molar value. Read-outs that look alike come from different tables or passages of the source.

How the values were obtained:
[1] = In vitro hemolytic activity; type: cell-based, sheep; details: sheep
Protocol: (§1) Defibrinated sheep blood (Newprov, Pinhais, PR, BR) was diluted in 0.9% saline solution and a suspension at 3% of erythrocytes was transferred (100 μL) in 96-well plates. […] The hemolytic activity was determined in the cell supernatant by optical density reading at 415 nm (Libra S12–Biochrom–Cambridge, RU) Distilled water was used as a positive control, and 0.9% saline solution with 0.1% DMSO was used as negative control.

[2] = test system: promastigote forms of L. (L.) amazonensis; experiment: In vitro leishmanicidal activity, growth inhibition of promastigote forms (counting in Neubauer's chamber); type: cell-based, Leishmania (Leishmania) amazonensis; details: value (95% CI)
Protocol: (§2) L. (L.) amazonensis (IFLA/BR/67/PH8.) was maintained as promastigote forms in Roswell Park Memorial Institute medium (RPMI 1640 medium) (Gibco, Grand Island, NY, USA), supplemented with antibiotics (penicillin 10.000 UI/mL and streptomycin […]) (Cultilab, Campinas, BR), and 10% bovine fetal serum (FBS) (Cultilab), at 25°C. L. (L.) infantum (MHOM/BR/1972/LD) was maintained as promastigote forms in M199 medium (Gibco), supplemented with 10% FBS (Cultilab), antibiotics (Cultilab), 5% human urine and 0.25% hemin (Sigma-Aldrich) at 25°C, and amastigote forms were obtained from the spleen of golden hamsters after 60 to 70 days of infection ([21]). Peritoneal murine macrophages were obtained by washing the peritoneal cavity of BALB/c mice with RPMI 1640 medium (Gibco) after 72 h of the application of 5 mL of the sodium thioglycolate (Sigma-Aldrich) at 3%, and then were cultivated in RPMI 1640 medium (Gibco) supplemented with antibiotics and 10% FBS (Gibco), at 37°C in a 5% CO2 humidified incubator.
Initially, a screening was performed against promastigote forms of L. (L.) amanzonensis. […] […], and the leishmanicidal activity was determined by the inhibition of growth of the promastigote forms by counting the total number of live promastigote in Neubauer's chamber (Global Glass, São Paulo, BR) using an optical microscope (Nikon New York, USA). […] To evaluate the leishmanicidal activity against amastigote forms, peritoneal murine macrophages were seemed (2 × 10^5 cells per well) in 24-well plates on slide chambers and incubated at 37°C for 24 h. […] The slides were stained with Giemsa (Synth, Diadema, BR), analyzed using an optical microscopy (Nikon), and the parasite load was defined by the number of infected macrophages X number of intracellular amastigotes/number of total macrophages ([23]). Parasites cultured in medium with 0.1% were used as negative control and parasites cultured in medium with MA or AmpB were used as positive controls.

[3] = test system: amastigote forms of L. (L.) amazonensis; experiment: In vitro leishmanicidal activity against intracellular amastigote forms in peritoneal murine macrophages (Giemsa, parasite load); type: cell-based; details: Leishmania amazonensis, Macrophage, 48 h, value (95% CI)
Protocol: as §2
(§3) Initially, a screening was performed against promastigote forms of L. (L.) amanzonensis. […] The slides were stained with Giemsa (Synth, Diadema, BR), analyzed using an optical microscopy (Nikon), and the parasite load was defined by the number of infected macrophages X number of intracellular amastigotes/number of total macrophages ([23]). […]

[4] = In vitro cytotoxic activity, MTT assay; type: cell-based, BALB/c mice; details: BALB/c, mouse, 48 h, MTT, value (95% CI)
Protocol: as §2
(§4) The cells were incubated at 37°C in a 5% CO2 humidified incubator at 37°C during 48 h, and the cytotoxic activity was determined using MTT assay ([23]). Cells cultured in medium with 0.1% DMSO were used as negative control and cells cultured in medium with 25% DMSO were used as positive control.

[5] = test system: Defibrinated sheep blood erythrocytes; experiment: In vitro hemolytic activity; type: cell-based; details: 400 μM; 30 min at 37°C
Protocol: as §1

amastigotes = details: 2.5 μM, 72 h of incubation; ref [10], [11]; cited from earlier work
[6] = parameters: method as in PMID 29698432; details: ref [38]; cited from earlier work
[7] = Hepatotoxicity in no-infected hamsters, serum ALT and AST; type: in vivo, golden hamsters (Mesocricetus auratus); details: for serum levels of aminotransaminases (ALT, AST): no-infected hamsters, 15 days, vs negative control group
Protocol: After this period, serum concentrations of alanine aminotransferase (ALT) and aspartate aminotransferase (AST) were determined using sets of commercial reagents (Labtest, Minas Gerais, Brazil). Negative control group received the same number of injections of PBS.

[8] = test system: amastigote forms of L. (L.) infantum; experiment: In vitro leishmanicidal activity against intracellular amastigote forms in peritoneal murine macrophages (Giemsa, parasite load); type: cell-based, Leishmania (Leishmania) infantum; details: 48 h, read-out: IC50 L (L.) infantum Amastigote 48 h
Protocol: as §2, §3

[9] = ref [11], cited from earlier work
L. (L.) major = details: 2.5 and 5 mg/kg of body weight, intraperitoneal, 7 days after infection during 39 days; ref [11]; cited from earlier work
L. (L.) donovani = details: 20 mg/kg of body weight per day, intraperitoneal, six consecutive days; vs untreated control; ref [11]; cited from earlier work
HFF cell = details: ref [32]; cited from earlier work
erythrocytes = details: after 24 h; ref [33]; cited from earlier work
L. (L.) infantum = experiment: In vivo leishmanicidal activity in L. (L.) infantum-infected hamsters (limiting dilution); parameters: species or system golden hamsters (Mesocricetus auratus); details: for reduction of parasite burden in liver / reduction of parasite burden in spleen: intraperitoneal, eight consecutive days, vs negative control group; for survival rate / average body weight: infected hamsters; for survival rate: after the treatment (data not shown); for average body weight: among negative, LicoA and MA groups
Protocol: Male golden hamsters were infected by intraperitoneal route with 1.0 × 10^8 L. (L.) infantum amastigotes. Four weeks after infection, the animals were randomly separated in 4 groups of 6 animals each. […] Negative control group received the same number of injections of phosphate buffered saline (PBS) and animals from positive control group was treated with MA (Sanofi-Aventis) at dose 50 mg/kg of body weight during eight consecutive days by intraperitoneal route. Thirty five days after treatment the animals were sacrificed and the parasite burden was evaluated both in spleen and liver by limiting dilution method ([24]).

[10] = test system: Peritoneal murine macrophages; experiment: In vitro cytotoxic activity, MTT assay; type: cell-based, BALB/c mice
Protocol: as §2, §4

[11] = test system: promastigote forms of L. (L.) infantum; experiment: In vitro leishmanicidal activity, growth inhibition of promastigote forms (counting in Neubauer's chamber); type: cell-based, Leishmania (Leishmania) infantum
Protocol: as §2
Initially, a screening was performed against promastigote forms of L. (L.) amanzonensis. […] The plates were incubated at same conditions previously described during 48 h, and the leishmanicidal activity was determined by the inhibition of growth of the promastigote forms by counting the total number of live promastigote in Neubauer's chamber (Global Glass, São Paulo, BR) using an optical microscope (Nikon New York, USA). […] To evaluate the leishmanicidal activity against amastigote forms, peritoneal murine macrophages were seemed (2 × 10^5 cells per well) in 24-well plates on slide chambers and incubated at 37°C for 24 h. […] The slides were stained with Giemsa (Synth, Diadema, BR), analyzed using an optical microscopy (Nikon), and the parasite load was defined by the number of infected macrophages X number of intracellular amastigotes/number of total macrophages ([23]). Parasites cultured in medium with 0.1% were used as negative control and parasites cultured in medium with MA or AmpB were used as positive controls.

[12] = Leishmania amazonensis, 24 h, read-out: IC50 L (L.) amazonensis Promastigote 24 h
[13] = Leishmania amazonensis, 48 h, read-out: IC50 L (L.) amazonensis Promastigote 48 h
[14] = 50 mg/kg of body weight per day intraperitoneally
[15] = 20 mg/kg of body weight per day
[16] = 50 mg/kg of body weight per day
[17] = 48 h, MTT, value (95% CI), read-out: CC50 Peritoneal murine macrophages 48 h

C[C@@H]1[C@H](O)[C@@H](C)/C=C/C=C/C=C/C=C/C=C/C=C/C=C/[C@H](O[C@@H]2O[C@H](C)[C@@H](O)[C@H](N)[C@@H]2O)C[C@@H]2O[C@](O)(C[C@@H](O)C[C@@H](O)[C@H](O)CC[C@@H](O)C[C@@H](O)CC(=O)O[C@H]1C)C[C@H](O)[C@H]2C(=O)O [AmpB, amphotericin B, reference compound]
hemolysis at 30 min, 100 µM [1]: 60% | hemolysis at 30 min, 200 µM [1]: 100% | pIC50 [2, 12]: 6.57 | pIC50 [2, 13]: 7.19 | pIC50 [3]: 7.66

COc1ccc(C(=O)/C=C/c2ccc(OCC=C(C)C)c(OC)c2)cc1 [LLA1 (1a), (E)-3-(3-methoxy-4-((3-methylbut-2-en-1-yl)oxy)phenyl)-1-(4-methoxyphenyl)prop-2-en-1-one]
pIC50 [2, 12]: 4.13 | pIC50 [2, 13]: 4.17 | CC50 at 48 h ([4]; peritoneal murine macrophages): > 400 µM

C=CC(C)(C)c1cc(/C=C/C(=O)c2ccc(O)cc2)c(OC)cc1O [LicoA (1), Licochalcone A]
hemolytic activity [5]: about 30% | effect on number of amastigotes (amastigotes): reduction in the number of amastigotes | effect against Acetaminophen overdose-induced hepatotoxicity [6]: protective effect | hepatotoxicity ([7]; LicoA-treated vs non-treated groups, serum aminotransaminases): No evidence of hepatotoxicity | serum levels of aminotransaminases (ALT, AST) ([7]; 20 mg/kg of body weight per day intraperitoneally): no significant alterations | serum levels of aminotransaminases (ALT, AST) [7, 14]: no significant alterations | pIC50 [2, 12]: 4.69 | pIC50 [2, 13]: 5.41 | pIC50 ([8]; Leishmania infantum, Macrophage): 4.53 | toxicity, intraperitoneal ([9]; 100 mg/kg in rats and 150 mg/kg in hamsters, intraperitoneal): did not show any toxicity | signs of toxicity, oral ([9]; doses higher than 1,000 mg/kg, orally once a day for 2 weeks): did not cause any signs of toxicity | lesion development (L. (L.) major): completely prevented lesion development | pIC50 [3]: 4.43 | reduction of parasite load in the liver and the spleen (L. (L.) donovani): > 96% | toxicity in HFF cell in vitro (HFF cell): low-toxicity | concentration inducing hemolysis (cell shrinkage and phospholipid scrambling of the cell membrane) (erythrocytes): higher than 30 μM | reduction of parasite burden in liver (L. (L.) infantum; [15]): 15.27% | reduction of parasite burden in spleen (L. (L.) infantum; [15]): 20.69% | reduction of parasite burden in liver (L. (L.) infantum; [16]): 43.67% | reduction of parasite burden in spleen (L. (L.) infantum; [16]): 39.81% | survival rate (L. (L.) infantum): 100% | average body weight (L. (L.) infantum): no significant variation | CC50 [10, 17]: 123 µM | CC50 at 48 h ([4]; read-out: CC50 Peritoneal murine macrophages 48 h): 123 µM | pIC50 ([11]; Leishmania infantum, 24 h, read-out: IC50 L (L.) infantum Promastigote 24 h): 4.39 | pIC50 ([11]; Leishmania infantum, 48 h, read-out: IC50 L (L.) infantum Promastigote 48 h): 4.90

(E)-3-(4-hydroxy-3-methoxyphenyl)-1-(4-hydroxyphenyl)prop-2-en-1-one [LLA2 (2a)]
pIC50 ([2]; 24 h, read-out: IC50 L (L.) amazonensis Promastigote 24 h): 3.52 | pIC50 ([2]; 48 h, read-out: IC50 L (L.) amazonensis Promastigote 48 h): 3.54 | CC50 [10]: > 400 µM

meglumine antimoniate [MA, reference compound]
serum levels of aminotransaminases (ALT, AST) [7, 14]: significant increase | pIC50 ([8]; in peritoneal murine macrophages, value (95% CI)): < 3.40 | reduction of parasite burden in liver (L. (L.) infantum; [16]): 55.87% | reduction of parasite burden in spleen (L. (L.) infantum; [16]): 63.57% | survival rate (L. (L.) infantum): 100% | average body weight (L. (L.) infantum): no significant variation | cytotoxicity at concentrations evaluated ([10]; 12.5–400 μM, 48 h): no cytotoxicity | CC50 [10, 17]: > 400 µM | pIC50 ([11]; 24 h, value (95% CI), read-out: IC50 L (L.) infantum Promastigote 24 h): < 3.40 | pIC50 ([11]; 48 h, value (95% CI), read-out: IC50 L (L.) infantum Promastigote 48 h): < 3.40
